system: human PCSK9; experiment: Cell Free PCSK9 Assay (PCSK9-luciferase mRNA translation in HeLa lysate); format: biochemical; conditions: PCSK9-luciferase RNA, 30° C. for 45 minutes, top concentration 100 μM
Description: As defined herein inhibition of translation of PCSK9 mRNA to PCSK9 protein is determined by the “Cell Free PCSK9 Assay” provided herein in the specification. This “Cell Free PCSK9 Assay” is specific to the production of PCSK9 protein from PCSK9 mRNA and therefore detects inhibitors of this translational process rather than other mechanisms by which PCSK9 protein may be reduced.
In order to eliminate the permeability barrier inherent to the WT7 cell-based assays a cell-free system was also established to assess compound activitiy. A sequence containing the full length human PCSK9 (NCBI reference identifier, NM_174936.3, where coding sequence start annotated at position 363) along with 84 additional 3′ nucleotides, comprising a V5 tag and polylinker followed by an in frame modified firefly luciferase reporter (corresponding to nucleotide positions 283-1929 of pGL3, GenBank reference identifier JN542721.1) was cloned into the pT7CFE1 expression vector (ThermoScientific). The construct was then in-vitro transcribed using the MEGAscript T7 Kit (Life Technologies) and RNA subsequently purified incorporating the MEGAclear Kit (Life Technologies) according to manufacturer's protocols. HeLa cell lysates were prepared following the protocols described by Mikami (reference is Cell-Free Protein Synthesis Systems with Extracts from Cultured Human Cells, S. Mikami, T. Kobayashi and H. Imataka; from Methods in Molecular Biology, vol. 607, pages 43-52, Y. Endo et al. (eds.), Humana Press, 2010) with the following modifications. Cells were grown in a 20 L volume of CD293 medium (Gibco 11765-054) with Glutamax increased to 4 mM, penicillin at 100 U/mL and other additions as previously described by Mikami. Growth was in a 50 L wavebag at a rocker speed of 25 rpm and angle 6.1 with 5% CO2 and 0.2 LPM flow rate with cells harvested at a density of 2-2.5e6/mL. Lysates additionally contained 1 tablet of Roche cOmplete-EDTA protease inhibitors per 50 mL with tris(2-carboxyethyl)phosphine (Biovectra) substituted for dithiothreitol, and were clarified by an additional final centrifugation at 10,000 rpm in a Sorvall SS34 rotor at 4° C. for 10 minutes. Compound screening was performed in 384-well plates in an eleven point, 0.5 log dilution format at a top test compound concentration of 100 μM in a final volume of 0.5% DMSO. In additional to these test compound conditions each screening plate also included wells that contained 100 μM of compound example 16 (as depicted in WO2014170786; N-(3-chloropyridin-2-yl)-N-[(3R)-piperidin-3-yl]-4-(3H-[1,2,3]triazolo[4,5-b]pyridin-3-yl)benzamide) as a positive assay control defined as high percent effect, HPE, as well as wells containing media in 0.5% DMSO as a negative treatment control defined as zero percent effect, ZPE. Compounds were incubated at 30° C. for 45 minutes in a solution containing 0.1 μg of purified, in-vitro transcribed RNA together with the cell-free reaction mixture (consisting of 1.6 mM Mg and 112 mM K salts, 4.6 mM tris(2-carboxyethyl)phosphine (Biovectra), 5.0 μL HeLa lysate, 0.2 μL RNAsin (Promega) and 1.0 μL energy mix (containing 1.25 mM ATP (Sigma), 0.12 mM GTP (Sigma), 20 mM creatine phosphate (Santa Cruz), 60 μg/mL creatine phosphokinase (Sigma), 90 μg/mL tRNA (Sigma) and the 20 amino acids (Life Technologies) at final concentrations described by Mikami) and brought up in water to a final volume of 10 μL in water. Upon assay completion 1 μL from each reaction solution was removed and transferred to a second 384-well Optiplate (Perkin Elmer) containing 24 μL of SteadyGlo (Promega) and signal intensity was measured on the Envision (Perkin Elmer) using the enhanced luminescence protocol. To determine compound IC50 the data for HPE and ZPE control wells were first analyzed and the mean, standard deviation and Z prime calculated for each plate. The test compound data were converted into percent effect, using the ZPE and HPE controls as 0% and 100% activity, respectively, applying Equation 1 above. […]

| IC50 [µM] | SMILES |
| --- | --- |
| 2.8 | Cn1ncc(-c2ccc(C(=O)N(c3ncccc3Cl)[C@@H]3CCCNC3)cc2F)c1-c1nn[nH]n1 [Example 3, N-(3-chloropyridin-2-yl)-3-fluoro-4-[1-methyl-5-(2H-tetrazol-5-yl)-1H-pyrazol-4-yl]-N-[(3R)-piperidin-3-yl]benzamide] |
| 8.2 | CCOC(=O)O[C@@H](C)n1nnnc1-c1c(-c2ccc(C(=O)N(c3ncccc3C)[C@@H]3CCCNC3)cc2)cnn1C [Example 5a, ethyl (S)-1-{5-[1-methyl-4-(4-{(3-methylpyridin-2-yl)[(3R)-piperidin-3-yl]carbamoyl}phenyl)-1H-pyrazol-5-yl]-1H-tetrazol-1-yl}ethyl carbonate] |
| 6.4 | CCOC(=O)O[C@H](C)n1nnnc1-c1c(-c2ccc(C(=O)N(c3ncccc3C)[C@@H]3CCCNC3)cc2)cnn1C [Example 5b, ethyl (R)-1-{5-[1-methyl-4-(4-{(3-methylpyridin-2-yl)[(3R)-piperidin-3-yl]carbamoyl}phenyl)-1H-pyrazol-5-yl]-1H-tetrazol-1-yl}ethyl carbonate] |
| 10.3 | CCOC(=O)O[C@@H](C)n1nnnc1-c1c(-c2ccc(C(=O)N(c3ncccc3Cl)[C@@H]3CCCNC3)cc2)cnn1C [Example 6, ethyl (S)-1-{5-[1-methyl-4-(4-{(3-chloropyridin-2-yl)[(3R)-piperidin-3-yl]carbamoyl}phenyl)-1H-pyrazol-5-yl]-1H-tetrazol-1-yl}ethyl carbonate] |
| 13.4 | CCOC(=O)O[C@@H](C)n1nnnc1-c1c(-c2ccc(C(=O)N(c3ncccc3Cl)[C@@H]3CCCNC3)cc2F)cnn1C [Example 7, ethyl (S)-1-{5-[4-(4-{(3-chloropyridin-2-yl)[(3R)-piperidin-3-yl]carbamoyl}-2-fluorophenyl)-1-methyl-1H-pyrazol-5-yl]-1H-tetrazol-1-yl}ethyl carbonate] |
| 11 | CCOC(=O)O[C@@H](C)n1nnnc1-c1c(-c2ccc(C(=O)N(c3ncccc3C)[C@@H]3CCCNC3)cc2F)cnn1C [Example 8, ethyl (S)-1-{5-[4-(4-{(3-methylpyridin-2-yl)[(3R)-piperidin-3-yl]carbamoyl}-2-fluorophenyl)-1-methyl-1H-pyrazol-5-yl]-1H-tetrazol-1-yl}ethyl carbonate] |
| 58.9 | CCOC(=O)O[C@@H](C)n1nnnc1-c1c(-c2ccc(C(=O)N(c3ncccc3C)[C@@H]3CCCNC3)nc2)cnn1C [Example 9, ethyl (S)-1-{5-[1-methyl-4-(6-{(3-methylpyridin-2-yl)[(3R)-piperidin-3-yl]carbamoyl}pyridin-3-yl)-1H-pyrazol-5-yl]-1H-tetrazol-1-yl}ethyl carbonate] |
| > 74 | CCOC(=O)O[C@@H](C)n1nnnc1-c1c(-c2ccc(C(=O)N(c3ncccc3Cl)[C@@H]3CCCNC3)nc2)cnn1C [Example 10, ethyl (S)-1-{5-[4-(6-{(3-chloropyridin-2-yl)[(3R)-piperidin-3-yl]carbamoyl}pyridin-3-yl)-1-methyl-1H-pyrazol-5-yl]-1H-tetrazol-1-yl}ethyl carbonate] |
